In the NIST ThermoML archive (doi:10.1016/j.jct.2018.06.015):

Experiment: xn = mol fraction of the nth substance listed
Settings: 100 kPa, Liquid; for speed of sound: Frequency=3 MHz, Single path-length method; for mass density: Vibrating tube method

CCCCOCCOCCO [3,6-dioxa-1-decanol] + CCCCCCCCO
Settings | mass density, 293.15 K [kg/m3] | mass density, 298.15 K [kg/m3] | mass density, 303.15 K [kg/m3] | mass density, 308.15 K [kg/m3] | mass density, 313.15 K [kg/m3] | speed of sound, 293.15 K [m/s] | speed of sound, 298.15 K [m/s] | speed of sound, 303.15 K [m/s] | speed of sound, 308.15 K [m/s] | speed of sound, 313.15 K [m/s]
x1 = 0.0518 | 832.225 | 828.746 | 825.244 | 821.725 | 818.179 | 1364.4 | 1347.4 | 1330.7 | 1313.9 | 1297.4
x1 = 0.1019 | 838.886 | 835.371 | 831.834 | 828.281 | 824.7 | 1363.4 | 1346.4 | 1329.7 | 1313 | 1296.4
x1 = 0.1605 | 846.645 | 843.087 | 839.508 | 835.909 | 832.289 | 1362.8 | 1345.8 | 1329.1 | 1312.5 | 1296
x1 = 0.1994 | 851.754 | 848.167 | 844.558 | 840.932 | 837.284 | 1362.4 | 1345.5 | 1328.8 | 1312.1 | 1295.6
x1 = 0.2503 | 858.438 | 854.812 | 851.169 | 847.507 | 843.826 | 1362.1 | 1345.3 | 1328.5 | 1311.9 | 1295.5
x1 = 0.303 | 865.322 | 861.66 | 857.975 | 854.271 | 850.554 | 1362 | 1345.2 | 1328.5 | 1311.9 | 1295.4
x1 = 0.4013 | 878.059 | 874.317 | 870.565 | 866.793 | 863.012 | 1362.5 | 1345.7 | 1329 | 1312.4 | 1296
x1 = 0.4999 | 890.695 | 886.882 | 883.058 | 879.218 | 875.365 | 1363.2 | 1346.4 | 1329.7 | 1313.1 | 1296.7
x1 = 0.5918 | 902.338 | 898.456 | 894.568 | 890.661 | 886.747 | 1364.5 | 1347.6 | 1330.9 | 1314.3 | 1297.8
x1 = 0.7043 | 916.351 | 912.393 | 908.423 | 904.44 | 900.454 | 1366.7 | 1349.8 | 1333.1 | 1316.5 | 1299.9
x1 = 0.8085 | 929.131 | 925.094 | 921.053 | 916.997 | 912.939 | 1369.4 | 1352.4 | 1335.7 | 1319 | 1302.5
x1 = 0.848 | 933.965 | 929.901 | 925.834 | 921.75 | 917.662 | 1370.8 | 1353.8 | 1336.8 | 1320.1 | 1303.6
x1 = 0.901 | 940.359 | 936.257 | 932.151 | 928.029 | 923.906 | 1373 | 1356 | 1339.2 | 1322.4 | 1305.8
x1 = 0.9501 | 946.262 | 942.124 | 937.981 | 933.818 | 929.657 | 1374.3 | 1357.3 | 1340.4 | 1323.7 | 1307
x1 = 1 | 952.288 | 948.1 | 943.909 | 939.704 | 935.503 | 1378.2 | 1361.3 | 1344.5 | 1326.4 | 1307.7
